Measurements reported in publication PMC6220849, “Mechanistic and structural studies of KDM‐catalysed demethylation of histone 1 isotype 4 at lysine 26” (Febs Letters, 2018).
Square brackets hold non-standard residues; d marks the D form. Ends that are not written are not given here. Me3 = N-epsilon-trimethyl on lysine; Lys(Me) = CNCCCC[C@H](N)C(=O)O

T1: KDM4A(1-359), catalytic domain of human histone lysine demethylase KDM4A (human, UniProt O75164 1-359)
T1 construct: KDM4A, human, catalytic domain, residues 1-359; In the crystal the active site holds Ni(II) (in place of Fe(II)) and N-oxalylglycine (NOG)
T1 sequence (looked up): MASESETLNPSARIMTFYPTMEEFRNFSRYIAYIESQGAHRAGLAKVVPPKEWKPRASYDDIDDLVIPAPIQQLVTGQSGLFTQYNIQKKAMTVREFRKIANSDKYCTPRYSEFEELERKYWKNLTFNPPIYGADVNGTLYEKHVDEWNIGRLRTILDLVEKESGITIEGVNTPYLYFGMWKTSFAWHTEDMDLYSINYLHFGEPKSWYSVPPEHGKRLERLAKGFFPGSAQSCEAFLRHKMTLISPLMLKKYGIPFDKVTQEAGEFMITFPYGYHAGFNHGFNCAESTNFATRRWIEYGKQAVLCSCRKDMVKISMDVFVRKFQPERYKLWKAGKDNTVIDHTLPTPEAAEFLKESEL

B1: H1.4(18–32)K26me3 peptide (histone 1 isotype 4, residues 18-32, N-epsilon-trimethyllysine at K26) (peptide)
peptide: TPVKKKARK(Me3)SAGAAK-NH2
notes: histone H1.4 (histone 1 isotype 4), residues 18-32; only residues 24-29 are seen in the crystal structure; also called H1.4K26me3; H1.4K26me3 peptide; source: synthetic peptide

What was measured:
KDM4B (KDM4B1–359) = test: MALDI-TOF MS demethylation activity assay, KDM4B; format: biochemical, human; set-up: key: 🟢: Indicates that clear demethylation activity was observed; 🟡: Indicates that low level demethylation activity was observed (<10% conversion after 1 h); 🔴: Indicates no activity under the stated conditions (1 μM KDM, 10 μM peptide); 🟡*: *Indicates demethylation activity was only observed with 5 μM KDM; settings: peptide as substrate, 1 μM KDM, 10 μM peptide, 50 mM HEPES pH 7.5, Fe(II) 10 μM, ascorbate 100 μM, 2OG 200 μM, 1 h at 37 °C
Method: (§1) Recombinant proteins (1 μM) were incubated with peptides (10 μM, sequences are given in Table S1) in 50 mM HEPES, pH 7.5 with addition of Fe(II) ammonium sulfate (10 μM), sodium ascorbate (100 μM) and 2‐oxoglutaric acid (200 μM). Reactions with KDM3A and KDM7A also contained 1 mM tris(2‐carboxyethyl)phosphine hydrochloride. No enzyme reactions were included as negative controls. Reactions were incubated for 1 h at 37 °C before being quenched with 1 : 1 (v/v) methanol. Analysis was carried out by MALDI‐TOF MS (Bruker, Billerica, MA, USA), with demethylation observed as mass shifts of 14 Da.
(§2) Given the activity observed with KDM4E and KDM7A, we decided to investigate the intra‐subfamily conservation of this demethylation activity. The demethylation activity of the other subfamily members (KDM4A‐D and KDM7B) was therefore screened. […] Note that as with H3K9, demethylation of the monomethylated H1.4K26 peptide was only observed with KDM4E, under the stated conditions 24.

KDM4A (KDM4A1–359) = test: MALDI-TOF MS demethylation activity assay, KDM4A; format: biochemical, human; set-up: key: 🟢: Indicates that clear demethylation activity was observed; 🟡: Indicates that low level demethylation activity was observed (<10% conversion after 1 h); 🔴: Indicates no activity under the stated conditions (1 μM KDM, 10 μM peptide); 🟡*: *Indicates demethylation activity was only observed with 5 μM KDM; settings: peptide as substrate, 1 μM KDM, 10 μM peptide, 50 mM HEPES pH 7.5, Fe(II) 10 μM, ascorbate 100 μM, 2OG 200 μM, 1 h at 37 °C
Method: as §1, §2

KDM3A (KDM3A515–1317) = test: MALDI-TOF MS demethylation activity assay, KDM3A; format: biochemical, human; set-up: key: 🟢: Indicates that clear demethylation activity was observed; 🟡: Indicates that low level demethylation activity was observed (<10% conversion after 1 h); 🔴: Indicates no activity under the stated conditions (1 μM KDM, 10 μM peptide); 🟡*: *Indicates demethylation activity was only observed with 5 μM KDM; settings: peptide as substrate, 1 μM KDM, 10 μM peptide, 50 mM HEPES pH 7.5, Fe(II) 10 μM, ascorbate 100 μM, 2OG 200 μM, 1 mM TCEP, 1 h at 37 °C
Method: as §1
(§3) The propensity of human JmjC KDMs to catalyse demethylation at H1.4K26 was investigated using recombinant forms of the catalytic domains of representatives of each human JmjC KDM subfamily (KDM2‐7) and fragment peptides (Table S1) 37. Three peptides with identical sequences, corresponding to residues 18–32 of histone H1.4 (H2N‐[…]‐CONH2), but containing either a N ^ε‐tri‐, di‐ or monomethyllysine at K26 were synthesised (Fig. 1B and Table S1). Activity assays monitoring JmjC KDM‐catalysed demethylation of the peptides were then carried out; samples were prepared containing each peptide, 2‐oxoglutarate (2OG), ferrous iron, ascorbate and individual representatives from each JmjC KDM subfamily (KDM2A 38, KDM3A 21, KDM4E 22, KDM5C 39, 40, KDM6B 41, KDM7A 42).

KDM6B (KDM6B1141–1590) = test: MALDI-TOF MS demethylation activity assay, KDM6B; format: biochemical, human; set-up: key: 🟢: Indicates that clear demethylation activity was observed; 🟡: Indicates that low level demethylation activity was observed (<10% conversion after 1 h); 🔴: Indicates no activity under the stated conditions (1 μM KDM, 10 μM peptide); 🟡*: *Indicates demethylation activity was only observed with 5 μM KDM; settings: peptide as substrate, 1 μM KDM, 10 μM peptide, 50 mM HEPES pH 7.5, Fe(II) 10 μM, ascorbate 100 μM, 2OG 200 μM, 1 h at 37 °C
Method: as §1, §3

KDM7B (PHF8; KDM7B1–447) = test: MALDI-TOF MS demethylation activity assay, KDM7B (PHF8); format: biochemical, human; set-up: key to demethylation activity on methylated H1.4 peptide: 🟢: Indicates that clear demethylation activity was observed; 🟡: Indicates that low level demethylation activity was observed (<10% conversion after 1 h); 🔴: Indicates no activity under the stated conditions (1 μM KDM, 10 μM peptide); 🟡*: *Indicates demethylation activity was only observed with 5 μM KDM; settings: peptide as substrate; MALDI-TOF MS; 1 μM KDM (* = only with 5 μM KDM), 10 μM peptide, 50 mM HEPES pH 7.5, Fe(II) 10 μM, ascorbate 100 μM, 2OG 200 μM, 1 h at 37 °C
Method: as §1, §2
(§4) N ^ε‐Trimethylated H3K4 binds to the plant homeobox domain of KDM7B, targeting the N ^ε‐dimethyllysine at H3K9 to the catalytic domain, and thus promoting demethylation 29, 44. To test whether similar targeting may occur with H1.4, promoting activity at H1.4K26, an H1.4 peptide was synthesised containing di‐N ^ε‐methyllysine at K26 and tri‐N ^ε‐methyllysine at K21 (i.e. at the equivalent position in the sequence to K4 in the H3 peptide, Fig. 1B, Table S1). Monomethylation at H1.4K21 has previously been observed by proteomic mass spectrometry 45. With the aim of enhancing activity, the enzyme concentration was increased from 1 μM to 5 μM, and time course analyses were conducted with both KDM7A and KDM7B, both with the new peptide (H1.4(18–32)K21me3K26me2) and the H1.4 peptides methylated only at K26 (Fig. 2B). […] Thus, it appears unlikely that N ^ε‐trimethylation at H1.4K21 promotes demethylation at H1.4K26 by KDM7B.

KDM5C (KDM5C1–765) = test: MALDI-TOF MS demethylation activity assay, KDM5C; format: biochemical, human; set-up: key: 🟢: Indicates that clear demethylation activity was observed; 🟡: Indicates that low level demethylation activity was observed (<10% conversion after 1 h); 🔴: Indicates no activity under the stated conditions (1 μM KDM, 10 μM peptide); 🟡*: *Indicates demethylation activity was only observed with 5 μM KDM; settings: peptide as substrate, 1 μM KDM, 10 μM peptide, 50 mM HEPES pH 7.5, Fe(II) 10 μM, ascorbate 100 μM, 2OG 200 μM, 1 h at 37 °C
Method: as §1, §3

KDM4D (KDM4D1–359) = test: MALDI-TOF MS demethylation activity assay, KDM4D; format: biochemical, human; set-up: key: 🟢: Indicates that clear demethylation activity was observed; 🟡: Indicates that low level demethylation activity was observed (<10% conversion after 1 h); 🔴: Indicates no activity under the stated conditions (1 μM KDM, 10 μM peptide); 🟡*: *Indicates demethylation activity was only observed with 5 μM KDM; settings: peptide as substrate, 1 μM KDM, 10 μM peptide, 50 mM HEPES pH 7.5, Fe(II) 10 μM, ascorbate 100 μM, 2OG 200 μM, 1 h at 37 °C
Method: as §1, §2

KDM2A (KDM2A1–557) = test: MALDI-TOF MS demethylation activity assay, KDM2A; format: biochemical, human; set-up: key: 🟢: Indicates that clear demethylation activity was observed; 🟡: Indicates that low level demethylation activity was observed (<10% conversion after 1 h); 🔴: Indicates no activity under the stated conditions (1 μM KDM, 10 μM peptide); 🟡*: *Indicates demethylation activity was only observed with 5 μM KDM; settings: peptide as substrate, 1 μM KDM, 10 μM peptide, 50 mM HEPES pH 7.5, Fe(II) 10 μM, ascorbate 100 μM, 2OG 200 μM, 1 h at 37 °C
Method: as §1, §3

KDM7A (KDM7A38–480) = test: MALDI-TOF MS demethylation activity assay, KDM7A; format: biochemical, human; settings: peptide as substrate; MALDI-TOF MS; 1 μM KDM, 10 μM peptide, 50 mM HEPES pH 7.5, Fe(II) 10 μM, ascorbate 100 μM, 2OG 200 μM, 1 mM TCEP, 1 h at 37 °C
Method: as §1, §3, §4

KDM4C (KDM4C1–359) = test: MALDI-TOF MS demethylation activity assay, KDM4C; format: biochemical, human; set-up: key: 🟢: Indicates that clear demethylation activity was observed; 🟡: Indicates that low level demethylation activity was observed (<10% conversion after 1 h); 🔴: Indicates no activity under the stated conditions (1 μM KDM, 10 μM peptide); 🟡*: *Indicates demethylation activity was only observed with 5 μM KDM; settings: peptide as substrate, 1 μM KDM, 10 μM peptide, 50 mM HEPES pH 7.5, Fe(II) 10 μM, ascorbate 100 μM, 2OG 200 μM, 1 h at 37 °C
Method: as §1, §2

[1] = target: T1, KDM4A(1-359), catalytic domain of human …; test: crystal structure; co-crystals of KDM4A(1-359).Ni(II).H1.4(18-32)K26me3.NOG; sitting drops at 4 °C, 0.1 M MIB buffer pH 6.0, 25% w/v PEG 1500; 10 mg/mL KDM4A, 5 mM peptide, 5 mM NOG, 4 mM NiCl2; settings: both partners purified

Molecule	demethylation activity on methylated H1.4 peptide (KDM4B (KDM4B1–359))	demethylation activity on methylated H1.4 peptide (KDM4A (KDM4A1–359))	demethylation activity on methylated H1.4 peptide (KDM3A (KDM3A515–1317))	demethylation activity on methylated H1.4 peptide (KDM6B (KDM6B1141–1590))	demethylation activity on methylated H1.4 peptide (KDM7B (PHF8; KDM7B1–447))	demethylation activity on methylated H1.4 peptide (KDM5C (KDM5C1–765))	demethylation activity on methylated H1.4 peptide (KDM4D (KDM4D1–359))	demethylation activity on methylated H1.4 peptide (KDM2A (KDM2A1–557))	demethylation activity on methylated H1.4 peptide (KDM7A (KDM7A38–480))	demethylation activity on methylated H1.4 peptide (KDM4C (KDM4C1–359))	binding result [1]
TPVKKKAR[Lys(Me)]SAGAAK [H1.4(18–32)K26me1, peptide of residues 18–32 of histone H1.4 with N ε-monomethyllysine at K26]	🔴	🔴	🔴	🔴	🟡*	🔴	🔴	🔴	🟡 (Indicates that low level demethylation activity was observed (<10% conversion after 1 h))	🔴	–
B1	–	–	–	–	–	–	–	–	–	–	binds
